Source: patent publication US20240252454A1, “COMPOSITION COMPRISING AN INHIBITOR OF MITOCHONDRIAL TRANSCRIPTION” (LEAD DISCOVERY CENTER GMBH, priority 2021, published 2024)

Experiments:
[1] = PK and toxicological studies, plasma and liver concentrations; format: in vivo; conditions: oral combination of the IMT and Venetoclax in 0.5% methyl cellulose in water, NBSGW mice, 4 hours, plasma and liver (FIG. 4)
Procedure: Combinations s of 2-[(3R)-1-[(2R)-2-[4-(2-chloro-4-fluoro-phenyl)-2-oxo-chromen-7-yl]oxypropanoyl]-3-piperidyl]acetic acid and Venetoclax were administered orally in a formulation of 0.5% methyl cellulose in water, before the respective substance concentrations (y-axis) of Venetoclax (left) or 2-[(3R)-1-[(2R)-2-[4-(2-chloro-4-fluoro-phenyl)-2-oxo-chromen-7-yl]oxypropanoyl]-3-piperidyl]acetic acid (right) after 4 hours and extraction from blood plasma or liver tissue were analysed by LC-MS. Error bars indicate the standard deviation around the mean of the multiple measurements.
For this, a vehicle formulation suitable for the oral administration of the combination of Venetoclax and 2-[(3R)-1-[(2R)-2-[4-(2-chloro-4-fluoro-phenyl)-2-oxo-chromen-7-yl]oxypropanoyl]-3-piperidyl]acetic acid was prepared to examine its pharmacokinetic suitability. Since the formulations based on ethanol, PEG-400 and Phosal that have been published for Venetoclax have not proven to be suitable for generating an administrable solution or suspension of IMT and Venetoclax, a simplified formulation of 0.5% methyl cellulose in water was prepared, which was tested initially in PK and toxicological studies in NBSGW mice (FIG. 4). […] On the other hand, doses that could be safely used were established in this mouse model, with which the subsequent studies could be carried out.

A2780 = experiment: CellTiter-GLO (CTG) assay, combinatorial matrix; format: cell-based; conditions: for Measured residual activity (%) based on an untreated control group (=100%): A2780, 72 h, cellular ATP content (CellTiter-GLO)
Procedure: To determine the in vitro cellular viability, cellular ATP concentrations were measured using a luminescence-based homogenous assay format, as described here. […] Optimal cell density for each cell line was determined to guarantee linearity. For viability assays with compounds, cells were then seeded at a density of 200 to 1000 per well in 25 μl in 384-well plates (Greiner Bio-One, Frickenhausen, Germany). After overnight incubation at 37° C./5% CO2, 25 nl or 75 nl compounds were added to each sample well by using BIOMEK FXP Laboratory Automation Workstation (Beckman Coulter, USA). Wells with cells and 0.1% or 0.3% DMSO in culture medium were used as positive controls, wells with cells and 10 μM staurosporine (Selleck Chemicals, Huston, USA) in culture medium were used as negative controls. Upon incubation with compounds for 72 h at 37° C./5% CO2 25 μl Cell Titer Glo reagent (Promega, Madison, USA, European Pat. No. 1131441, U.S. Pat. Nos. 7,083,911, 7,452,663 and 7,732,128) 1:2 diluted with cell culture medium) was added to each well to determine cell viability. 384well-plates were placed for 2 min on an orbital microplate shaker and incubated for further 10 min at room temperature resulting in a stabilization of light signal. Luminescence was measured by Envision Plate Reader (Perkin Elmer, USA).
All in vitro cell culture experiments were carried out under near physiological glucose concentrations (5 mM) in at least two independent replicates.

[2] = tested on: A2780 ovarian carcinoma xenograft; experiment: in vivo xenograft study with IMT and MEKi in A2780
Procedure: Time course of tumour growth (top) and body weight change (bottom). Transplant with A2780 on day 0, stratification on day six into six groups (n=8). Treatment with vehicle formulation, twice daily 25 mg/kg or 12.5 mg/kg Selumetinib, once daily 100 mg/kg (3S)-1-[(2R)-2-[4-(2-chloro-4-fluoro-phenyl)-2-oxo-chromen-7-yl]oxypropanoyl]piperidine-3-carboxylic acid, or the combination of IMT with 12.5 mg/kg MEKi or 25 mg/kg MEKi as indicated. Error bars indicate the standard deviation of the respective group. * indicates significant differences from the control group (nonparametric Whitnes-U test, p<0.05).
Female NMRI: nu/nu mice were injected subcutaneously with the ovarian carcinoma cell line and, after reaching a palpable tumour volume of 0.2 cm3, were randomized and divided into groups of eight animals each. In addition to a control group, which was administered only with the vehicle formulation, additional groups were given 100 mg/kg (3S)-1-[(2R)-2-[4-(2-chloro-4-fluoro-phenyl)-2-oxo-chromen-7-yl]oxypropanoyl]piperidine-3-carboxylic acid, 12.5 mg/kg AZD6244, 25 mg/kg AZD6244 or the combination of 100 mg/kg (3S)-1-[(2R)-2-[4-(2-chloro-4-fluoro-phenyl)-2-oxo-chromen-7-yl]oxypropanoyl]piperidine-3-carboxylic acid and 12.5 or 25 mg/kg AZD6244 was administered. The substance was administered orally over 21 days, twice daily in 25% PEG400, 57% HPbCD. […]

HEC59 = experiment: CellTiter-GLO (CTG) assay, combinatorial matrix; format: cell-based; conditions: 30 μM to 15 nM IMT + 30 μM to 40 nM BAY-876

In the case of CC1(C)CCC(CN2CCN(c3ccc(C(=O)NS(=O)(=O)c4ccc(NCC5CCOCC5)c([N+](=O)[O-])c4)c(Oc4cnc5[nH]ccc5c4)c3)CC2)=C(c2ccc(Cl)cc2)C1 [Venetoclax], the “PK parameters, in particular the plasma and tissue concentrations” value [1] is reported as “do not significantly influence one another”.
In the case of C[C@@H](Oc1ccc2c(-c3ccc(F)cc3Cl)cc(=O)oc2c1)C(=O)N1CCC[C@H](C(=O)O)C1 [(3S)-1-[(2R)-2-[4-(2-chloro-4-fluoro-phenyl)-2-oxo-chromen-7-yl]oxypropanoyl]piperidine-3-carboxylic acid], the “Measured residual activity (%) based on an untreated control group (=100%)” value (shortened to “Measured residual activity (%) based”) (A2780; Teriflunomide 0 = IMT alone at the concentration (μM) in c1 of the row, IMT 0.12 µM) is reported as 32%, the “Measured residual activity (%) based” value (A2780; Teriflunomide 0 = IMT alone at the concentration (μM) in c1 of the row, IMT 15 µM) is reported as 28% and the “Measured residual activity (%) based” value (A2780; Teriflunomide 0.04 (μM) + IMT (μM) (30-0), IMT 0.12 µM) is reported as 31%. For the same compound, the “Measured residual activity (%) based” value (A2780; Teriflunomide 0.04 (μM) + IMT (μM) (30-0), IMT 0.47 µM) was 28%, the “Measured residual activity (%) based” value (A2780; Teriflunomide 0.04 (μM) + IMT (μM) (30-0), IMT 7.5 µM) was 27% and the “Measured residual activity (%) based” value (A2780; Teriflunomide 0.1 (μM) + IMT at the concentration (μM) in c1 of the row (30-0), IMT 0.23 µM) was 29%. The “Measured residual activity (%) based” value (A2780; Teriflunomide 0.1 (μM) + IMT at the concentration (μM) in c1 of the row (30-0), IMT 7.5 µM) was 22%, the “Measured residual activity (%) based” value (A2780; Teriflunomide 0.4 (μM) + IMT at the concentration (μM) in c1 of the row (30-0), IMT 0.06 µM) was 32% and the “Measured residual activity (%) based” value (A2780; Teriflunomide 0.4 (μM) + IMT at the concentration (μM) in c1 of the row (30-0), IMT 7.5 µM) was 22%. The “Measured residual activity (%) based” value (A2780; Teriflunomide 0.4 (μM) + IMT at the concentration (μM) in c1 of the row (30-0), IMT 15 µM) was 25%, the “Measured residual activity (%) based” value (A2780; Teriflunomide 1.1 (μM) + IMT at the concentration (μM) in c1 of the row (30-0), IMT 0.06 µM) was 30% and the “Measured residual activity (%) based” value (A2780; Teriflunomide 1.1 (μM) + IMT at the concentration (μM) in c1 of the row (30-0), IMT 0.94 µM) was 23%. The “Measured residual activity (%) based” value (A2780; Teriflunomide 3.3 (μM) + IMT at the concentration (μM) in c1 of the row (30-0), IMT 0.06 µM) was 24%, the “Measured residual activity (%) based” value (A2780; Teriflunomide 3.3 (μM) + IMT at the concentration (μM) in c1 of the row (30-0), IMT 0.47 µM) was 23% and the “Measured residual activity (%) based” value (A2780; Teriflunomide 3.3 (μM) + IMT at the concentration (μM) in c1 of the row (30-0), IMT 30 µM) was 22%. For the same compound, the “Measured residual activity (%) based” value (A2780; Teriflunomide 10 (μM) + IMT at the concentration (μM) in c1 of the row (30-0), IMT 0.12 µM) was 23%, the “Measured residual activity (%) based” value (A2780; Teriflunomide 10 (μM) + IMT at the concentration (μM) in c1 of the row (30-0), IMT 0.94 µM) was 19% and the “Measured residual activity (%) based” value (A2780; Teriflunomide 30 (μM) + IMT at the concentration (μM) in c1 of the row (30-0), IMT 0.03 µM) was 19%. The “Measured residual activity (%) based” value (A2780; Teriflunomide 30 (μM) + IMT at the concentration (μM) in c1 of the row (30-0), IMT 30 µM) was 13%, the “combination of IMT and GLUTi compared to treatment with only the GLUTi BAY-876 alone” value (A2780; A2780, CTG matrix, 30 μM to 15 nM IMT + 30 μM to 40 nM BAY-876) was “advantage of the combination” and the “final tumour volume after completion of the study” value ([2]; 100 mg/kg IMT + 12.5 or 25 mg/kg AZD6244, oral, 21 days, compared to the same amounts of MEK inhibitor alone (FIG. 2)) was “advantage of the combination treatment”. The “tolerability (changes in body weight, acute overt effects)” value ([2]; combination administration of IMT and AZD6244 over the course of the study) was “well tolerated” and the “combination of IMT and GLUTi compared to treatment with only the GLUTi BAY-876 alone” value (HEC59) was “advantage of the combination”.
